Assay type in all cases: in vivo, human
Assay [1] has as its system hepatic gluconeogenesis (GNG). Nature of the assay: Glucose supply and insulin demand model: effect on hepatic gluconeogenesis. The note with it: for GNG inhibition: adjustment factor = decrease in hepatic gluconeogenesis at the therapeutic dose of Table 1, T2D. How it is done:
(§1) Therapeutic targets of the glucose supply (CE, 1+2; HGU, 3; GNG, 4; IR, 5) and insulin demand (PGU, 6; PIE, 7) model are presented in FIG. 1. To identify quantitative differences between antidiabetic agents on CE, HGU, GNG, IR, PGU, and PIE, multidatabase searches (Cochrane Central Register of Controlled Trials and Cochrane Register of Systematic Reviews, Embase, OVID Healthstar, OVID Journals, and PubMed) were conducted cross-referencing title and keywords for all selected antidiabetic therapies and their respective targets.
(§2) Alpha-glucosidase, biguanide, and thiazolidinedione (TZD) studies with long-term, pre-post design at maximal therapeutic doses were identified to simulate chronic administration. To maintain consistency with cardiovascular trials and accommodate known influences of hyperglycemia and hyperinsulinemia on the respective targets,^13-16 studies including patients with HbA1c in the range of 6-8% and body mass index (BMI)≧30 kg/m^2 were preferentially selected. In the event multiple studies were available to identify the effect of an agent on a therapeutic target, the mean percent change was used. Conversely, if there was evidence that an agent would elicit a response on a given target but no mathematical representation of the difference was provided, conservative estimates consistent with the scale of other agents and the degree of glucose regulation were instituted to best represent the expected effect. Individual agents were then characterized for the 24 h percent change from baseline for CE, HGU, GNG, IR, PGU, and PIE. Carbohydrate exposure was determined as the combined effect of caloric intake and intestinal carbohydrate absorption. Hepatic glucose uptake was defined as the reported value obtained immediately following oral glucose loading. Because GNG is known to be enhanced in the fasting state and persistent throughout the prandial phase,^17,18 effect was determined during the fasting state and considered equivalent throughout the prandial phase. For studies evaluating fasting glucose and insulin concentrations, an index of IR was determined by homeostasis model assessment of insulin resistance (HOM-AIR) using the following formula: Insulin (mU/liter)×Glucose (mmol)/22.5.^19 To account for known differences in secretory and uptake dynamics during the fasting and prandial phases, studies identifying the impact of therapies during the fasting state (or simulated hyperinsulinemic euglycemic clamp) and prandial phase (or oral glucose load insulin clamp) were specifically identified for changes in PGU (glucose infusion rate) and PIE (insulin concentrations) according to Equation (1): […]
(§3) For sulfonylurea and insulin-based therapies, insulin concentration time profiles were obtained and superimposed on the baseline 24 h insulin concentration time profile of T2D patients (FIG. 2) to calculate the increase in PIE (trapezoidal rule).^20 Calculated increases in incremental and cumulative insulin exposure were correlated to known insulin dose-response effects on HGU, GNG, and PGU (FIG. 3),^18,21 according to the equation y=mx+b. Twenty-four-hour increases in HGU, PGU, and PIE and decreases in GNG were compared to baseline values and percent change calculated.
(§4) With alpha-glucosidase, biguanide, TZD, secretagogue, and insulin therapies characterized for their respective impacts on CE, HGU, GNG, IR, PIE, and PGU, identification of their effect on the glucose supply (decrease in CE, increase in HGU, decrease in GNG, decrease in IR) and insulin demand (increase in PIE, increase in PGU) dynamic was assessed according to Equation (2), which provides the SD ratio according to the invention: […]

In assay [2] the test system is insulin resistance (IR). The assay is described as follows: Glucose supply and insulin demand model: effect on insulin resistance. The following applies: for IR reduction: adjustment factor = decrease in insulin resistance at the therapeutic dose of Table 1, T2D. How it is done:
as §1, §2, §3, §4

For assay [3], the system named is carbohydrate exposure (CE). Nature of the assay: Glucose supply and insulin demand model: effect on carbohydrate exposure. Set-up: scale not given here. The following applies: for CE inhibition: adjustment factor = decrease in carbohydrate exposure at the therapeutic dose of Table 1, T2D. How it is done:
as §1, §2, §3, §4

Assay [4] concerns peripheral insulin exposure (PIE). Nature of the assay: Glucose supply and insulin demand model: effect on peripheral insulin exposure. The following applies: for PIE: adjustment factor = increase in peripheral insulin exposure at the therapeutic dose of Table 1, T2D. How it is done:
as §1, §2, §3, §4
Twenty-four-hour steady state insulin concentration time curves were superimposed on the baseline secretion profile of the standard T2D patient.

Assay [5] has as its system peripheral glucose uptake (PGU). The assay is described as follows: Glucose supply and insulin demand model: effect on peripheral glucose uptake. The note with it: for PGU: adjustment factor = increase in peripheral glucose uptake at the therapeutic dose of Table 1, T2D. How it is done: as §1, §2, §3, §4
For assay [6], the system named is hepatic glucose uptake (HGU). The assay is described as follows: Glucose supply and insulin demand model: effect on hepatic glucose uptake. The following applies: for HGU uptake: adjustment factor = increase in hepatic glucose uptake at the therapeutic dose of Table 1, T2D. How it is done: as §1, §2, §3, §4
Where [7] appears, read: Metformin 2000 mg, Glyburide 10 mg, Pioglitazone 45 mg, Insulin Glargine 0.5 U/kg daily, pH encapsulated glucose 3.0 grams/day.

We go through 20 molecules from patent US9443060B2, “Method and system to provide personalized pharmaceutical compositions and dosages” (Volant Holdings GMBH, priority 2009, dated 2016).

With Insulin Aspart, in assay [1], the GNG inhibition was 0.14. In assay [2], the IR reduction stood at 0.00. In assay [3], the CE inhibition worked out at 0.00. Also, the PIE in assay [4] is 0.42. The PGU in assay [5] stood at 0.80. Moreover, the HGU uptake in assay [6] was determined as 0.23.

Insulin Ultralente gave a GNG inhibition in assay [1] of 0.08. Besides, the IR reduction in assay [2] is given as 0.00. This molecule gave a CE inhibition in assay [3] of 0.00. For the same molecule, the PIE in assay [4] was 0.24. Moreover, in assay [5], the PGU came out at 0.38. The same molecule displayed an HGU uptake in assay [6] of 0.17.

Insulin Aspart Protamine came in with a GNG inhibition in assay [1] of 0.10. The molecule further came in with an IR reduction in assay [2] of 0.00. Further, the CE inhibition in assay [3] is 0.00. In assay [4], this molecule showed a PIE of 0.28. Besides, the PGU in assay [5] is recorded as 0.40. The HGU uptake in assay [6] stood at 0.23.

For `COc1ccc(Cl)cc1C(=O)NCCc1ccc(S(=O)(=O)NC(=O)NC2CCCCC2)cc1` [Glyburide], the “Score HGI” value in assay [1] (setting [7]) amounted to 0.07. This molecule had a GNG inhibition in assay [1] of 0.07. In assay [2] (setting [7]), the “Score IR” value stood at 0.00. The IR reduction in assay [2] came to 0.00. Also, the “Score CE” value in assay [3] (setting [7]) was determined as 0.00. In addition, in assay [4] (setting [7]), the “Score PIE” value is 0.21. Moreover, the PIE in assay [4] was 0.21. Further, in assay [5] (setting [7]), the “Score PGU” value stood at 0.36. In assay [5], this molecule yielded a PGU of 0.36. For the same molecule, in assay [6] (setting [7]), the “Score HGU” value was 0.14. For the same molecule, the HGU uptake in assay [6] is given as 0.14.

`C[C@H]1O[C@H](O[C@H]2[C@H](O)[C@@H](O)[C@@H](O[C@H]3[C@H](O)[C@@H](O)C(O)O[C@@H]3CO)O[C@@H]2CO)[C@H](O)[C@@H](O)[C@@H]1N[C@H]1C=C(CO)[C@@H](O)[C@H](O)[C@H]1O` (stereo partly shown) [Acarbose]: the GNG inhibition in assay [1] is listed as 0.05. Also, the IR reduction in assay [2] is 0.15. The same molecule displayed a PIE in assay [4] of 0.05. Further, in assay [5], the PGU is 0.25. For the same molecule, in assay [6], the HGU uptake came to 0.15.

On to Insulin Isophane, for which, in assay [1], the GNG inhibition amounted to 0.10. The IR reduction in assay [2] turned out to be 0.00. The same molecule showed a CE inhibition in assay [3] of 0.00. The molecule further had a PIE in assay [4] of 0.28. This molecule also returned a PGU in assay [5] of 0.40. Moreover, the HGU uptake in assay [6] amounted to 0.23.

In turn, `CCOc1cc(CC(=O)N[C@@H](CC(C)C)c2ccccc2N2CCCCC2)ccc1C(=O)O` [Repaglinide] showed a GNG inhibition in assay [1] of 0.07. Further, the IR reduction in assay [2] came out at 0.00. In assay [4], this molecule displayed a PIE of 0.20. Further, the PGU in assay [5] is given as 0.31. Also, the HGU uptake in assay [6] is 0.16.

Turning to Insulin Lispro Protamine, in assay [1], the GNG inhibition was determined as 0.10. Besides, the IR reduction in assay [2] is on record as 0.00. In assay [3], this molecule registered a CE inhibition of 0.00. In assay [4], the PIE is given as 0.28. This molecule yielded a PGU in assay [5] of 0.40. The same molecule registered an HGU uptake in assay [6] of 0.23.

`CCCNC(=O)NS(=O)(=O)c1ccc(Cl)cc1` [Chlorpropamide] showed a GNG inhibition in assay [1] of 0.07. This molecule also gave an IR reduction in assay [2] of 0.00. The PIE in assay [4] was found to be 0.21. This molecule also showed a PGU in assay [5] of 0.36. The same molecule yielded an HGU uptake in assay [6] of 0.14.

In assay [1], Insulin Lente came in with a GNG inhibition of 0.10. This molecule also came in with an IR reduction in assay [2] of 0.00. The same molecule displayed a CE inhibition in assay [3] of 0.00. In assay [4], this molecule registered a PIE of 0.28. Besides, in assay [5], the PGU is given as 0.40. The molecule also registered an HGU uptake in assay [6] of 0.23.

`Cc1c(C)c2c(c(C)c1O)CCC(C)(COc1ccc(CC3SC(=O)NC3=O)cc1)O2` (stereo not shown) [Troglitazone] returned a GNG inhibition in assay [1] of 0.22. In assay [2], this molecule came in with an IR reduction of 0.35. This molecule yielded a PIE in assay [4] of −0.10. Also, in assay [5], the PGU is listed as 0.67. In assay [6], this molecule showed an HGU uptake of 0.40.

Regarding Insulin Regular, in assay [1], the GNG inhibition stood at 0.11. The molecule further registered an IR reduction in assay [2] of 0.00. Also, the CE inhibition in assay [3] stood at 0.00. Moreover, in assay [4], the PIE is recorded as 0.33. Further, the PGU in assay [5] was found to be 0.64. In assay [6], this molecule showed an HGU uptake of 0.21.

The molecule `CCC1=C(C)CN(C(=O)NCCc2ccc(S(=O)(=O)NC(=O)N[C@H]3CC[C@H](C)CC3)cc2)C1=O` [Glimepiride] gave a GNG inhibition in assay [1] of 0.08. In addition, in assay [2], the IR reduction amounted to 0.00. The PIE in assay [4] stood at 0.24. For the same molecule, the PGU in assay [5] turned out to be 0.39. Further, the HGU uptake in assay [6] came to 0.18.

Molecule `CN(CCOc1ccc(CC2SC(=O)NC2=O)cc1)c1ccccn1` (stereo not shown) [Rosiglitazone] returned a GNG inhibition in assay [1] of 0.23. Also, the IR reduction in assay [2] turned out to be 0.39. This molecule returned a PIE in assay [4] of −0.10.

`Cc1cnc(C(=O)NCCc2ccc(S(=O)(=O)NC(=O)NC3CCCCC3)cc2)cn1` [Glipizide]: in assay [1], the GNG inhibition was 0.08. Further, in assay [2], the IR reduction was 0.00.

As for Insulin Lispro, in assay [1], the GNG inhibition is on record as 0.14. Also, in assay [2], the IR reduction was determined as 0.00. Also, the CE inhibition in assay [3] was found to be 0.00. In assay [4], this molecule yielded a PIE of 0.42. Also, the PGU in assay [5] was determined as 0.80. The HGU uptake in assay [6] was determined as 0.23.

Consider `Cc1ccc(S(=O)(=O)NC(=O)NN2CCCCCC2)cc1` [Tolazamide], for which the GNG inhibition in assay [1] is given as 0.07. Further, in assay [2], the IR reduction is 0.00. This molecule gave a PIE in assay [4] of 0.21. The same molecule came in with a PGU in assay [5] of 0.36. Further, in assay [6], the HGU uptake turned out to be 0.14.

Turning to `CC(C)[C@H]1CC[C@H](C(=O)N[C@H](Cc2ccccc2)C(=O)O)CC1` [Nateglinide], the GNG inhibition in assay [1] was 0.11. The same molecule returned an IR reduction in assay [2] of 0.00. Besides, the PIE in assay [4] is given as 0.34. In assay [5], the PGU was 0.60. Moreover, in assay [6], the HGU uptake is recorded as 0.21.

`CC(=O)c1ccc(S(=O)(=O)NC(=O)NC2CCCCC2)cc1` [Acetohexamide] came in with a GNG inhibition in assay [1] of 0.07. In assay [2], the IR reduction was 0.00. The PIE in assay [4] is reported as 0.21. Also, the PGU in assay [5] is given as 0.36. In assay [6], this molecule had an HGU uptake of 0.14.

In turn, `CCCCNC(=O)NS(=O)(=O)c1ccc(C)cc1` [Tolbutamide] showed a GNG inhibition in assay [1] of 0.07. Also, the IR reduction in assay [2] stood at 0.00. The PIE in assay [4] amounted to 0.21. In assay [5], the PGU was determined as 0.36. The HGU uptake in assay [6] came out at 0.14.
